According to US5028614A, “Hydroxymethyl-indolizidines and quinolizidines and their use as α-glucosidase I inhibitors” (Merrell Dow Pharmaceuticals Inc., priority 1990, dated 1991):
Counter-ions that a name gives are not always drawn.

Molecular target: α-glucosidase I
Assay: Microtiter plate assay for α-glucosidase I activity
Assay type: biochemical
Conditions: [3H]G3M9N substrate, purified α-glucosidase I, pH 6.8, 37° C., one hour
Experimental: The [^3 H] glucose labeled oligosaccharides substrate (G3 M9 N) for glucosidase I was prepared by metabolically labeling exponentially growing BHK cells with [^3 H]galactose in the presence of 200μg/ml of castanospermine. BHK cells grown as monolayer were treated with 200μg/ml of castanospermine in DMEM (#430-1600) supplemented with 10% heat inactivated fetal calf serum, 2 mM L-glutamine and 1X of PSN antibiotic mixture. After three hour incubation with castanospermine, [1-^3 H] galactose (10μci/ml of media) was added to label the glycoproteins and cells were allowed to grow to confluency for an additional 48 hours. At the end of labeling period, the cells were washed with cold PBS and scraped with a rubber policeman. Cell pellet was heated for 10 minutes at 100° C. and exhaustively treated with pronase (usually 72 hrs) in 50 mM Tris pH 7.5 containing 10 mM CaCl2 and 1% Pronase under toluene atmosphere to obtain glycopeptides. The glycopeptides were separated on columns of Bio-gel P-4. The glycopeptides peak produced by castanospermine treatment was pooled, treated with Endo-H to release the oligosaccharides. The oligosaccharides obtained by endo-H hydrolysis were bound to a ConA column previously washed with buffer A (50 mM Tris pH 7.5 containing 500 mM NaCl) and equilibrated with buffer B (5 mM Sodium acetate buffer pH 5.5 containing 2 mM of each CaCl2, MgCl2 and MnCl2). The oligosaccharides were then eluted with buffer B containing 100 mM α-methylmannoside. The oligosaccharides eluted from ConA column were further purified and characterized on a calibrated Biogel P-4 column (1.5×200 cm, (-) 400 mesh). The purified oligosaccharides having GLc3 Man9 GlcNAc structure were used as substrate in these studies. […]
ConA-sepharose was washed first with buffer A, then with buffer B as described above, and resuspended in buffer B (gel: buffer, 1:1) before use. […] A 150 μl aliquot of supernatant was removed and counted.

SMILES | IC50 [nM]
O=C(O[C@H]1CCCN2[C@H]1[C@H](O)[C@@H](O)[C@H](O)[C@H]2CO)c1ccccc1 [XVII, [1S-(1α,2β,3α,4β,9α,9aβ) ]-octahydro-4-(hydroxymethyl)-2H-quinolizine-1,2,3,9-tetrol 9-benzoate] | 29000
OC[C@@H]1[C@@H](O)[C@H](O)[C@@H](O)[C@H]2CCCN21 [Compound VII] | 300
OC[C@@H]1[C@@H](O)[C@H](O)[C@@H](O)[C@H]2[C@@H](O)CCCN21 [Compound XXI, [1S-(1α,2β,3α,4β,9α,9aβ)]-octahydro-4-(hydroxy-methyl) -2H-quinolizine-1,2,3,9-tetrol hydrochloride] | 150
